Test [1] has as its target Stat3 (Mus musculus, UniProt P42227). The experiment in a line: EMSA of Stat3 DNA-binding activity in nuclear extracts (hSIE probe). The format is biochemical. On the set-up: nuclear extracts (prepared from epidermal growth factor (EGF)-stimulated fibroblasts); endogenous in cells; host or cells: NIH3T3 fibroblasts stimulated with EGF. Particulars: for selectivity among Stat3, Stat1 and Stat5 (in words): EMSA IC50 comparison; for effect on Stat3 DNA-binding activity in vitro (in words): nuclear extracts. On the procedure:
(§1) Nuclear extract preparation and gel shift assays. Nuclear extracts were prepared from cell lines and used for electrophoretic mobility shift assay (EMSA) as previously described (Garcia, R. et al. (1997); Yu, C. L. et al. (1995); Turkson, J. et al. (1998)). In some cases, cells were pre-treated with peptidomimetics for the indicated times (12-48 h) prior to harvesting for nuclear extract preparation. In other studies, nuclear extracts were pre-incubated with peptidomimetics for 30 min at room temperature prior to incubation with radiolabeled probe. The ^32P-radiolabeled oligonucleotide probes used are hSIE (high affinity sis-inducible element, m67 variant, 5′-[…]-3′) (SEQ ID NO. 3) that binds both Stat1 and Stat3 (Garcia, R. et al. (1997); Wagner B. J. et al. (1990)) and MGFe (mammary gland factor element from the bovine β-casein gene promoter, 5′-[…]-3′) (SEQ ID NO. 4) that binds Stat1 and Stat5 (Gouilleux, F. et al. (1995); Seidel, H. M. et al. (1995)).
(§2) Peptidomimetics of the invention can be prepared by replacing prolyl or alanyl residue at the peptide bond that is N-terminal to the phosphotyrosine (Y*) of a peptide such as PY*L or AY*L with an organic substituent such as an optionally substituted aryl or heteroaryl group. The activities of STATs were measured in nuclear extracts (prepared from epidermal growth factor (EGF)-stimulated fibroblasts) as DNA-bound protein complexes by electrophoretic mobility shift assay (EMSA).
From densitometric analysis of band intensities, the IC50 values (concentration of peptidomimetic at which DNA-binding activity is reduced by 50%), which are reported in Table 3, were determined.
(In general: Mobility shift assays separate free from complexed probe on a gel.)

For test [2], the system named is NIH3T3/v-Src. The experiment in a line: Apo-BrdU labeling and flow cytometry for apoptotic cells. The format is cell-based, mouse. Particulars: NIH3T3/v-Src, 1 mM, 48 h, Apo-BrdU, flow cytometry. On the procedure: (§3) Cell proliferation, soft-agar growth and Apo-BrdU labeling studies. Proliferating fibroblasts and human tumor cells were counted by phase-contrast microscopy for viable cells (using tyrpan blue exclusion). Colony formation assays in six-well dishes and quantification of colonies by iodonitrotetrazolium violet have been previously described (Turkson, J. et al. (1999)). Treatment of cells with inhibitors was initiated 1 day after seeding cells by adding 75 μl of medium with or without inhibitor, and repeated every two to three days. Apoptosis was measured by Apo-BrdU labeling and following the supplier's (PharMingen; San Diego, Calif.) instructions.
(§4) Because one of the functions of Stat3 is to protect transformed or tumor cells from apoptosis (Catlett-Falcone, R. et al. (1999b); Epling-Burnette, P. K. et al. (2001); Grandis, J. R. et al. (2000); Bowman, T. et al. (2000b); Bromberg, J. F. et al. (1999)), the ability of peptidomimetics of the invention (and PY*LKTK-MTS for comparison) (SEQ ID NO. 1) to induce apoptosis in Stat3-dependent transformed fibroblasts was evaluated. Viral Src-transformed NIH3T3/v-Src fibroblasts were treated with or without compounds for 48 h. Treated cells were then labeled with Apo-BrdU (PharMingen; San Diego, Calif.) for detection of DNA breaks.
For orientation: Incorporation of labelled thymidine or its analogues reports DNA synthesis.

The subject of test [3] is NIH3T3. The test is described as above. The class given is cell-based, mouse. Particulars: NIH3T3, 1 mM, 48 h, flow cytometry. On the procedure: as §3, §4
For test [4], the target named is Stat5:Stat5. The experiment in a line: EMSA of Stat5:Stat5 DNA-binding in nuclear extracts. The format is biochemical, mouse. Particulars: nuclear extracts pre-incubated 30 min, mean and SD of at least 3 assays, read-out: IC50 values against STAT Dimers, Stat5:Stat5. On the procedure: as §1
as §2, with “(EMSA). STAT-DNA complexes detected include Stat3:Stat3 homodimers (upper band), Stat1:Stat3 heterodimers (intermediate band) and Stat1:Stat1 homodimers (lower band) (FIG. 1A) when a ^32P-labeled hSIE oligonucleotide probe is used, or Stat5:Stat5 (upper band) and Stat1:Stat1 dimers (lower band) (FIG. 1B) when ^32P-labeled MGFe is used as a probe.” for “(EMSA).”

Test [5] deals with T1, Stat1:Stat3 (Mus musculus, UniProt P42227).
T1 construct: nuclear extracts (prepared from epidermal growth factor (EGF)-stimulated fibroblasts); endogenous in cells; host or cells: NIH3T3 fibroblasts stimulated with EGF
T1 sequence (P42227 whole entry): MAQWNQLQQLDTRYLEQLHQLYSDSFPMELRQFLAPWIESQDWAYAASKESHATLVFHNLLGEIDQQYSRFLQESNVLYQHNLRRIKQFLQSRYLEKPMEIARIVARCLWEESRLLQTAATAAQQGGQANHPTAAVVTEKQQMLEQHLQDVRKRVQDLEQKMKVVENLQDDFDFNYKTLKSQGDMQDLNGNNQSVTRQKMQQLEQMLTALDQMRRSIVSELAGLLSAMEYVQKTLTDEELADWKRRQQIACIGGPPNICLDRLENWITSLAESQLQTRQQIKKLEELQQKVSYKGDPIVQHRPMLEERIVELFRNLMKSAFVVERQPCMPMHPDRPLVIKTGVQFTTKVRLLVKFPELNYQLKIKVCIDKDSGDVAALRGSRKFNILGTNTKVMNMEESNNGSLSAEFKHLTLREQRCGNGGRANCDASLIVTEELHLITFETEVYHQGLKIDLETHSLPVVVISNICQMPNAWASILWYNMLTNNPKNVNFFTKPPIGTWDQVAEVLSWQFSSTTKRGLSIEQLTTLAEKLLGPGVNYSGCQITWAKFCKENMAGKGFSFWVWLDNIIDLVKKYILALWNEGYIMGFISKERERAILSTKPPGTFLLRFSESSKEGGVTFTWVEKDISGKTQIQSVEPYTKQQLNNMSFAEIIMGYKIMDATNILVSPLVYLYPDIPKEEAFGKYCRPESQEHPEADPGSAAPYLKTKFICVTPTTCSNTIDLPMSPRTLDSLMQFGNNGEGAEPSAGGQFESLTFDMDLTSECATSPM
The experiment in a line: EMSA of Stat1:Stat3 heterodimer DNA-binding in nuclear extracts (hSIE probe). The class given is biochemical. Particulars: nuclear extracts pre-incubated 30 min, mean and SD of at least 3 assays, read-out: IC50 values against STAT Dimers, Stat1:Stat3. On the procedure: as §1, §2

Test [6] has as its target T2, Stat1:Stat1 (Mus musculus, UniProt P42225).
T2 construct: nuclear extracts (prepared from epidermal growth factor (EGF)-stimulated fibroblasts); endogenous in cells; host or cells: NIH3T3 fibroblasts stimulated with EGF
T2 sequence (P42225 1-749): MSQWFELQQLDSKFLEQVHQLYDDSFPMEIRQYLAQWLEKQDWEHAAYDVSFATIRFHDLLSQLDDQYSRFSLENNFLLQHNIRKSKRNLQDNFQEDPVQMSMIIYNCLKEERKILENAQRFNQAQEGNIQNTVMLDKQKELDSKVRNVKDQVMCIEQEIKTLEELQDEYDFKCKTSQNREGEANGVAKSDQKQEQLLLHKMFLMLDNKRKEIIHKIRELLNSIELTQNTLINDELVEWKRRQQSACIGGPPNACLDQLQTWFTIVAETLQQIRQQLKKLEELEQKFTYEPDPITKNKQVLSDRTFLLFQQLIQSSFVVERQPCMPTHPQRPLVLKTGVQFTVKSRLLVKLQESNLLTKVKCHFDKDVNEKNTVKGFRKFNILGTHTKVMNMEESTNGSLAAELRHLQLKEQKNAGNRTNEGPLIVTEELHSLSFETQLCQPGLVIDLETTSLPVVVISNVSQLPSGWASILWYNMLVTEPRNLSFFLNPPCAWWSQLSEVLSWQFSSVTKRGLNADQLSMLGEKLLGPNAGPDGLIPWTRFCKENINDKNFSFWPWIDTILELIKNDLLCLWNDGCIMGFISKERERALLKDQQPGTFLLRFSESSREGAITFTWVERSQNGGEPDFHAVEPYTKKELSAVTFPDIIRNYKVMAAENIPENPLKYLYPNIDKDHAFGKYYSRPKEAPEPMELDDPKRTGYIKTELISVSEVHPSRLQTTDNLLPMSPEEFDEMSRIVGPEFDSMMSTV
The experiment in a line: EMSA of Stat1:Stat1 DNA-binding in nuclear extracts. The format is biochemical. Particulars: nuclear extracts pre-incubated 30 min, EMSA; mean and SD of at least 3 assays; read-out: IC50 values against STAT Dimers, Stat1:Stat1. On the procedure: as §1
as §2, with “(EMSA). STAT-DNA complexes detected include Stat3:Stat3 homodimers (upper band), Stat1:Stat3 heterodimers (intermediate band) and Stat1:Stat1 homodimers (lower band) (FIG. 1A) when a ^32P-labeled hSIE oligonucleotide probe is used, or Stat5:Stat5 (upper band) and Stat1:Stat1 dimers (lower band) (FIG. 1B) when ^32P-labeled MGFe is used as a probe.” for “(EMSA).”

Test [7] concerns the target Stat3:Stat3 homodimers (activated Stat3 in nuclear extracts of EGF-stimulated NIH3T3 fibroblasts) (mouse) (UniProt P42227). The experiment in a line: cell-based or functional assay.
[8] abbreviates: nuclear extracts pre-incubated 30 min, hSIE probe, EMSA, mean and SD of at least 3 assays, read-out: IC50, disruption of Stat3 DNA-binding activity.

19 molecules from patent US7842671B1, “Peptidomimetic inhibitors of STAT activity and uses thereof” (University of South Florida, priority 2003, dated 2010) can be followed below.

Read-outs that look alike come from different tables or passages of the source. Square brackets hold non-standard residues; d marks the D form. Peptide text beside a SMILES is read from it. * marks the point of attachment. pY = N[CH](Cc1ccc(OP(=O)(O)O)cc1)C(=O)O; Nicotinoyl = O=C(c1cccnc1)*; 3Abz = Nc1cccc(C(=O)O)c1; Isobutyryl = CC(C)C(=O)*; 2Abz = Nc1ccccc1C(=O)O Some results are limits rather than exact numbers.

Stat3, sequence (P42227 whole entry): as the sequence (P42227 whole entry) above

In the case of `CC(C)CC(NC(=O)C(Cc1ccc(OP(=O)(O)O)cc1)NC(=O)c1ccc2ccccc2c1)C(=O)O` (stereo not shown) [ISS 353], the IC50 (usually the midpoint of a concentration-inhibition curve) in test [1] (setting [8]) came out at 650 µM.
In test [1], `CC(C)CC(NC(=O)C(Cc1ccc(OP(=O)(O)O)cc1)NC(=O)c1cccc2ccccc12)C(=O)O` (stereo not shown) [ISS 352] returned an IC50 of 410 µM.
The same measure, in the same setting: in the case of `CC(C)CC(NC(=O)C(Cc1ccc(OP(=O)(O)O)cc1)NC(=O)c1ccc(-c2ccccc2)cc1)C(=O)O` (stereo not shown) [ISS 355] it was above 1000 µM.
On to `CC(C)CC(NC(=O)C(Cc1ccc(OP(=O)(O)O)cc1)NC(=O)c1ccccc1N)C(=O)O` (stereo not shown) [ISS 265] (H-[2Abz]-[pY]-Leu-OH; configuration not given here), for which the IC50 in test [1] (setting [8]) is above 1000 µM.
Regarding `CC(=O)NC(Cc1ccc(OP(=O)(O)O)cc1)C(=O)NC(CC(C)C)C(=O)O` (stereo not shown) [ISS230] (Ac-[pY]-Leu-OH; configuration not given here), the half-inhibitory concentration (IC50) in test [1] was above 1000 µM.
For the molecule “PYLKTK-AAVLLPVLLAAP (PYLKTKAAVLLPVLLAAP; membrane translocating sequence; murine) [PYLKTK-MTS]”, the entries for the “percent of apoptotic cells” value in test [2] and in test [3] were 0.4% and 1.2%, respectively.
`CC(C)CC(NC(=O)C(Cc1ccc(OP(=O)(O)O)cc1)NC(=O)c1cc([N+](=O)[O-])ccc1F)C(=O)O` (stereo not shown) [ISS 375] yielded a concentration for half-maximal inhibition (IC50) in test [1] above 1000 µM.
On the same count and under the same terms, then `Cc1ccc(C(=O)NC(Cc2ccc(OP(=O)(O)O)cc2)C(=O)NC(CC(C)C)C(=O)O)cn1` (stereo not shown) [ISS 223], with 225 µM.
Take `Cc1cnc(C(=O)NC(Cc2ccc(OP(=O)(O)O)cc2)C(=O)NC(CC(C)C)C(=O)O)cn1` (stereo not shown) [ISS 493]: the IC50 in test [4] worked out at 300 µM; in test [5] it was 230 µM; in test [6], 273 µM; in test [1] (setting [8]) it was 38 µM. Also, the “selectivity among Stat3, Stat1 and Stat5 (in words)” value in test [1] is on record as “preferential suppression of Stat3 activity over those of Stat1 or Stat5”.
In test [7], Prolylphosphotyrosylleucine (peptide) returned an IC50, concentration at which Stat3 DNA-binding (EMSA, hSIE probe) is reduced by 50% of 182 µM.
Molecule `CC(C)CC(NC(=O)C(Cc1ccc(OP(=O)(O)O)cc1)NC(=O)c1cnc2ccccc2c1)C(=O)O` (stereo not shown) [ISS 363] displayed an IC50 in test [1] of 643 µM.
Same read-out and setting: then `CC(C)CC(NC(=O)C(Cc1ccc(OP(=O)(O)O)cc1)NC(=O)C(C)C)C(=O)O` (stereo not shown) [ISS234] (Isobutyryl-[pY]-Leu-OH; configuration not given here), with above 1000 µM.
On to `CC(C)CC(NC(=O)C(Cc1ccc(OP(=O)(O)O)cc1)NC(=O)c1cccc(N)c1)C(=O)O` (stereo not shown) [ISS 248] (H-[3Abz]-[pY]-Leu-OH; configuration not given here), for which, in test [1], the 50% inhibitory concentration (IC50) was above 1000 µM.
For the molecule `Cc1ncccc1C(=O)NC(Cc1ccc(OP(=O)(O)O)cc1)C(=O)NC(CC(C)C)C(=O)O` (stereo not shown) [ISS 221], the IC50 in test [4] was 50 µM; in test [5], 455 µM; in test [6] it was 310 µM; in test [1] (setting [8]), 75 µM. The “effect on Stat3 DNA-binding activity in vitro (in words)” value in test [1] (EMSA) is on record as “potent disrupters of active Stat3”.
`CC(C)CC(NC(=O)C(Cc1ccc(OP(=O)(O)O)cc1)NC(=O)c1ccccc1-c1ccccc1)C(=O)O` (stereo not shown) [ISS 360] displayed a half-maximal inhibitory concentration (IC50) in test [1] of 420 µM.
Take `COc1cccc(OC)c1C(=O)NC(Cc1ccc(OP(=O)(O)O)cc1)C(=O)NC(CC(C)C)C(=O)O` (stereo not shown) [ISS 637]: the IC50 in test [4] is 695 µM; in test [5], 195 µM; in test [6] it was 255 µM; in test [1] (setting [8]), 55 ± 35 µM. For the same molecule, the “selectivity among Stat3, Stat1 and Stat5 (in words)” value in test [1] is on record as “preferential suppression of Stat3 activity over those of Stat1 or Stat5”. Besides, in test [1] (in vitro, EMSA), the “increase in potency in inhibiting Stat3 DNA-binding activity compared to tripeptides PY*L or AY*L” value was 5 fold. The “effect on Stat3 DNA-binding activity in vitro (in words)” value in test [1] (EMSA) is reported as “potent disrupters of active Stat3”.
`CC(C)CC(NC(=O)C(Cc1ccc(OP(=O)(O)O)cc1)NC(=O)c1ccc(N)nc1)C(=O)O` (stereo not shown) [ISS 249]: the IC50 in test [1] was above 1000 µM.
`CC(C)CC(NC(=O)C(Cc1ccc(OP(=O)(O)O)cc1)NC(=O)c1cccnc1)C(=O)O` (stereo not shown) [ISS 219] (Nicotinoyl-[pY]-Leu-OH; configuration not given here): the IC50 in test [1] (setting [8]) was found to be 232 µM.
Turning to Alanylphosphotyrosylleucine (peptide), the IC50, concentration at which Stat3 DNA-binding (EMSA, hSIE probe) is reduced by 50% in test [7] came to 217 µM.
